Data as given in PubChem BioAssay AID2060493 (Molecular Pharmacology Branch, DTP, NCI, 2025).

Test system: 616215-338-R-J1-PDC tumor spheroids, viability
Assay: Anticancer human tumor 616215-338-R-J1-PDC patient-derived colon adenocarcinoma cell line growth inhibition [GQUAD]
Settings: spheroids with HUVEC and MSC; for IC50: curve of first compound; for viability, T/C: stronger effect = lower value
Outline: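 Multi-cell-type spheroids of tumor cells with HUVEC and mesenchymal stem cells, treated with drug combinations. Concentrations descend in half-log steps from near clinical Cmax, or from 10 microM where Cmax is unknown; viability read-out.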

[1] = second compound 0.0316 µM, first compound 0.0316 µM
[2] = second compound 0.0316 µM, first compound 0.316 µM
[3] = second compound 0.1 µM, first compound 0.0316 µM
[4] = second compound 0.1 µM, first compound 0.316 µM
[5] = second compound 0.316 µM, first compound 0.0316 µM
[6] = second compound 0.316 µM, first compound 0.316 µM
[7] = second compound 1 µM, first compound 0.0316 µM
[8] = second compound 1 µM, first compound 0.316 µM
[9] = second compound 3.16 µM, first compound 0.0316 µM
[10] = second compound 3.16 µM, first compound 0.316 µM
[11] = second compound 10 µM, first compound 0.0316 µM
[12] = second compound 10 µM, first compound 0.316 µM
[13] = second compound 0.0316 µM, first compound 0.1 µM
[14] = second compound 0.0316 µM, first compound 1 µM
[15] = second compound 0.0316 µM, first compound 3.16 µM
[16] = second compound 0.0316 µM, first compound 10 µM
[17] = second compound 0.1 µM, first compound 0.1 µM
[18] = second compound 0.1 µM, first compound 1 µM
[19] = second compound 0.1 µM, first compound 3.16 µM
[20] = second compound 0.1 µM, first compound 10 µM
[21] = second compound 0.316 µM, first compound 0.1 µM
[22] = second compound 0.316 µM, first compound 1 µM
[23] = second compound 0.316 µM, first compound 3.16 µM
[24] = second compound 0.316 µM, first compound 10 µM
[25] = second compound 1 µM, first compound 0.1 µM
[26] = second compound 1 µM, first compound 1 µM
[27] = second compound 1 µM, first compound 3.16 µM
[28] = second compound 1 µM, first compound 10 µM
[29] = second compound 3.16 µM, first compound 0.1 µM
[30] = second compound 3.16 µM, first compound 1 µM
[31] = second compound 3.16 µM, first compound 3.16 µM
[32] = second compound 3.16 µM, first compound 10 µM
[33] = second compound 10 µM, first compound 0.1 µM
[34] = second compound 10 µM, first compound 1 µM
[35] = second compound 10 µM, first compound 3.16 µM
[36] = second compound 10 µM, first compound 10 µM
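Note: spheroids exposed to agents for 7 days before readout.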
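Throughout, for viability, T/C: percent viability relative to DMSO vehicle control wells taken as 100%.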

Cn1ncnc1[C@H]1c2n[nH]c(=O)c3cc(F)cc(c23)N[C@@H]1c1ccc(F)cc1 + Cc1cnc(CNC(=O)c2c(=O)c3ccc(N4CCCN(C)CC4)nc3n3c2sc2ccccc23)cn1
IC50 (second compound 0.0316 µM): > 316 nM | IC50 (second compound 0.1 µM): 237 nM | IC50 (second compound 0.316 µM): < 0.999 nM | IC50 (second compound 1 µM): < 0.999 nM | IC50 (second compound 3.16 µM): < 0.999 nM | IC50 (second compound 10 µM): < 0.999 nM | viability, T/C (second compound 0.0316 µM, first compound 0.000999 µM): 102% | viability, T/C (second compound 0.0316 µM, first compound 0.00316 µM): 99.4% | viability, T/C (second compound 0.0316 µM, first compound 0.00999 µM): 104% | viability, T/C [1]: 94.8% | viability, T/C (second compound 0.0316 µM, first compound 0.0999 µM): 86.5% | viability, T/C [2]: 77.9% | viability, T/C (second compound 0.1 µM, first compound 0.000999 µM): 68.2% | viability, T/C (second compound 0.1 µM, first compound 0.00316 µM): 75.2% | viability, T/C (second compound 0.1 µM, first compound 0.00999 µM): 77.9% | viability, T/C [3]: 56.5% | viability, T/C (second compound 0.1 µM, first compound 0.0999 µM): 58.5% | viability, T/C [4]: 48.1% | viability, T/C (second compound 0.316 µM, first compound 0.000999 µM): 40.9% | viability, T/C (second compound 0.316 µM, first compound 0.00316 µM): 53.4% | viability, T/C (second compound 0.316 µM, first compound 0.00999 µM): 44.3% | viability, T/C [5]: 44.4% | viability, T/C (second compound 0.316 µM, first compound 0.0999 µM): 48.4% | viability, T/C [6]: 29.5% | viability, T/C (second compound 1 µM, first compound 0.000999 µM): 28.2% | viability, T/C (second compound 1 µM, first compound 0.00316 µM): 34.9% | viability, T/C (second compound 1 µM, first compound 0.00999 µM): 27.3% | viability, T/C [7]: 44.1% | viability, T/C (second compound 1 µM, first compound 0.0999 µM): 33.2% | viability, T/C [8]: 33.2% | viability, T/C (second compound 3.16 µM, first compound 0.000999 µM): 34.9% | viability, T/C (second compound 3.16 µM, first compound 0.00316 µM): 27.5% | viability, T/C (second compound 3.16 µM, first compound 0.00999 µM): 26.4% | viability, T/C [9]: 30.6% | viability, T/C (second compound 3.16 µM, first compound 0.0999 µM): 29% | viability, T/C [10]: 33.3% | viability, T/C (second compound 10 µM, first compound 0.000999 µM): 31.2% | viability, T/C (second compound 10 µM, first compound 0.00316 µM): 27.4% | viability, T/C (second compound 10 µM, first compound 0.00999 µM): 30.1% | viability, T/C [11]: 35.5% | viability, T/C (second compound 10 µM, first compound 0.0999 µM): 27.4% | viability, T/C [12]: 30.2%

Cc1cccc(N(C)C(=O)C2C(O)CCN2c2nc(C)cc(C(F)(F)F)c2C#N)c1 (stereo unspecified) + CN(C)c1ccc(Nc2c3ccc(NC(=O)CCN4CCCC4)cc3nc3cc(NC(=O)CCN4CCCC4)ccc23)cc1
IC50 (second compound 0.0316 µM): > 10000 nM | IC50 (second compound 0.1 µM): > 10000 nM | IC50 (second compound 0.316 µM): > 10000 nM | IC50 (second compound 1 µM): > 10000 nM | IC50 (second compound 3.16 µM): > 10000 nM | IC50 (second compound 10 µM): 3120 nM | viability, T/C [1]: 111% | viability, T/C [13]: 97.9% | viability, T/C [2]: 103% | viability, T/C [14]: 103% | viability, T/C [15]: 105% | viability, T/C [16]: 109% | viability, T/C [3]: 102% | viability, T/C [17]: 101% | viability, T/C [4]: 108% | viability, T/C [18]: 101% | viability, T/C [19]: 104% | viability, T/C [20]: 96.2% | viability, T/C [5]: 104% | viability, T/C [21]: 99.5% | viability, T/C [6]: 104% | viability, T/C [22]: 107% | viability, T/C [23]: 114% | viability, T/C [24]: 110% | viability, T/C [7]: 100% | viability, T/C [25]: 99.1% | viability, T/C [8]: 106% | viability, T/C [26]: 97.8% | viability, T/C [27]: 102% | viability, T/C [28]: 98.7% | viability, T/C [9]: 98.6% | viability, T/C [29]: 93.1% | viability, T/C [10]: 103% | viability, T/C [30]: 102% | viability, T/C [31]: 88.2% | viability, T/C [32]: 88.9% | viability, T/C [11]: 102% | viability, T/C [33]: 78.2% | viability, T/C [12]: 80.2% | viability, T/C [34]: 63.5% | viability, T/C [35]: 49% | viability, T/C [36]: 36.6%

COc1ccc([C@@H](O)c2cc(-c3ncnc4cc(N5CCOCC5)ccc34)c(F)cc2Cl)nn1 + Cc1cnc(CNC(=O)c2c(=O)c3ccc(N4CCCN(C)CC4)nc3n3c2sc2ccccc23)cn1
IC50 (second compound 0.0316 µM): 798 nM | IC50 (second compound 0.1 µM): 770 nM | IC50 (second compound 0.316 µM): < 31.6 nM | IC50 (second compound 1 µM): < 31.6 nM | IC50 (second compound 3.16 µM): < 31.6 nM | IC50 (second compound 10 µM): < 31.6 nM | viability, T/C [1]: 102% | viability, T/C [13]: 92.4% | viability, T/C [2]: 93.9% | viability, T/C [14]: 39.3% | viability, T/C [15]: 30.1% | viability, T/C [16]: 25.3% | viability, T/C [3]: 59.2% | viability, T/C [17]: 74.2% | viability, T/C [4]: 61.2% | viability, T/C [18]: 42.2% | viability, T/C [19]: 39.9% | viability, T/C [20]: 24.6% | viability, T/C [5]: 43.6% | viability, T/C [21]: 46.8% | viability, T/C [6]: 43% | viability, T/C [22]: 27.9% | viability, T/C [23]: 26.4% | viability, T/C [24]: 14.6% | viability, T/C [7]: 25.3% | viability, T/C [25]: 28.6% | viability, T/C [8]: 30.5% | viability, T/C [26]: 21.8% | viability, T/C [27]: 22.8% | viability, T/C [28]: 7.7% | viability, T/C [9]: 23.1% | viability, T/C [29]: 26.9% | viability, T/C [10]: 30.1% | viability, T/C [30]: 25% | viability, T/C [31]: 15.9% | viability, T/C [32]: 3.64% | viability, T/C [11]: 33.8% | viability, T/C [33]: 25.8% | viability, T/C [12]: 32.3% | viability, T/C [34]: 20% | viability, T/C [35]: 15.4% | viability, T/C [36]: 3.43%
